This is an account of results in patent US20230089867A1, “CYCLIC PENTAMER COMPOUNDS AS PROPROTEIN CONVERTASE SUBTILISIN/KEXIN TYPE 9 (PCSK9) INHIBITORS FOR THE TREATMENT OF METABOLIC DISORDER” (Novartis AG, priority 2018, published 2023).

For the experiment, the target named is human PCSK9 (Homo sapiens, UniProt Q8NBP7). The experiment is described as follows: PCSK9 ligand binding TR-FRET assay (interference with binding of human PCSK9 to human LDLR). Conditions: for Max % inhibition: PCSK9 FRET assay, efficacy (Amax), 100% = 1 uM unlabeled human PCSK9, 0% = DMSO; for IC50: TR-FRET, human PCSK9 Alexa Fluor 647 / human LDLR extracellular domain-Europium Kryptate, read-out: PCSK9 FRET Assay IC50. The protocol: The PCSK9 binding of the compounds of the disclosure were measured using a time resolved fluorescence resonance energy transfer (TR-FRET) assay. This time resolved fluorescence resonance energy transfer (TR-FRET) assay measures the ability of a compound of the present disclosure to interfere with the binding of human PCSK9 to human LDLR, providing measures of both potency (IC50) and efficacy (Amax).
These solutions were pipetted into columns 1 and 11 of the compound plate. Threefold serial dilutions were generated in columns 2-10 and 12-20 of the compound plate by transferring 10 uL into 20 uL of DMSO. Columns 21 and 22 of the compound plate were negative controls containing DMSO alone.
An intermediate plate was generated in a Greiner V bottom plate by transferring 8 uL from each well of the master plate into a corresponding well containing 92 uL of assay buffer and mixing thoroughly.
A Proxi plate-low volume assay plate was used for the assay. […] For the positive control wells in columns 23 and 24 of the plate, 5 uL of unlabeled human PCSK9 was added at 4 uM in assay buffer containing 8% DMSO. Following a 30 minute incubation, 5 uL of 4 nM Human LDLR extracellular domain-Europium Kryptate was added and the mixture was incubated for an additional 2 hours.
The FRET ratio (FRET/Europium) was used for calculations.
Data is expressed as percent inhibition: (value−0%)/(100%−0%).

Chain of human PCSK9 (Q8NBP7 153-692): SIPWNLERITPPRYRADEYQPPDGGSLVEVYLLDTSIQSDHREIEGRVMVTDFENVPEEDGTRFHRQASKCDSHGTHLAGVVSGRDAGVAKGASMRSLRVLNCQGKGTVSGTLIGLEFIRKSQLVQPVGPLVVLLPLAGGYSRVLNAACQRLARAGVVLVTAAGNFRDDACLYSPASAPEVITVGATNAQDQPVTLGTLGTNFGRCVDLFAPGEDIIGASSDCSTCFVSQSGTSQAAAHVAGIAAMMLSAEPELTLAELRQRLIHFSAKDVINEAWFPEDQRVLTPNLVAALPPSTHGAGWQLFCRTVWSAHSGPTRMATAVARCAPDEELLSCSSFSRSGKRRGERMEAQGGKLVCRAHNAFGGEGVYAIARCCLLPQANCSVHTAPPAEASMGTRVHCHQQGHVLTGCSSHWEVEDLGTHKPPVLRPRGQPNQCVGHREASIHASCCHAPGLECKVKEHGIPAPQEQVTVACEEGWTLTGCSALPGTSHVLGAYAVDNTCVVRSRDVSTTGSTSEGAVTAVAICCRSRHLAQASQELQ
Chain of human PCSK9 (Q8NBP7 31-152 partner limits assumed): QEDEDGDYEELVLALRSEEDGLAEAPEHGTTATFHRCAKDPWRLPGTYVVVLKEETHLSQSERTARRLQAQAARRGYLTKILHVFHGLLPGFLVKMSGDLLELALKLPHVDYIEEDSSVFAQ

As a reminder, the IC50 is the concentration that gives 50% inhibition. Take `C[C@H]1CNC(=O)C[C@H](Cc2ccc(Cl)cc2)N(C)C(=O)[C@H](CCF)NC(=O)[C@H](C)N(Cc2ccc(Cl)cc2Oc2ccc(-c3cnc(CN4CCCC4)n3C)cc2)C(=O)C[C@@H](Cc2ccccc2)C(=O)N1C` [Compound 257, (2S,5S,8S,13S,16R)-16-benzyl-1-(4-chloro-2-(4-(1-methyl-2-(pyrrolidin-1-ylmethyl)-1H-imidazol-5-yl)phenoxy)benzyl)-8-(4-chlorobenzyl)-5-(2-fluoroethyl)-2,7,13,14-tetramethyl-1,4,7,11,14-pentaazacyclooctadecane-3,6,10,15,18-pentaone]: the Max % inhibition is 50.23% and the IC50 was determined as 21.3 nM.

Take `COC[C@@H]1NC(=O)[C@H](C)N(Cc2ccc(Cl)cc2Oc2ccc(-c3cnc(CN(C)C)n3C)cc2)C(=O)C[C@@H](Cc2ccc(F)c[n+]2[O-])C(=O)N(C)[C@@H](C)CNC(=O)C[C@H](Cc2ccc(Cl)cc2)N(C)C1=O` [Compound 180, 2-(((2S,5S,8S,13S,16R)-1-(4-chloro-2-(4-(2-((dimethylamino)methyl)-1-methyl-1H-imidazol-5-yl)phenoxy)benzyl)-8-(4-chlorobenzyl)-5-(methoxymethyl)-2,7,13,14-tetramethyl-3,6,10,15,18-pentaoxo-1,4,7,11,14-pentaazacyclooctadecan-16-yl)methyl)-5-fluoropyridine 1-oxide]: the Max % inhibition came out at 102.27% and the IC50 is 3.1 nM.

As to `CC[C@H]1C(=O)N[C@@H](COC)C(=O)N(C)[C@@H](Cc2ccc(Cl)cc2)CC(=O)NC[C@H](C)N(C)C(=O)[C@H](C)CC(=O)N1Cc1ccc(Cl)cc1Oc1ccc(-c2cnc(CN(C)C)n2C)cc1` [Compound 173, (2S,5S,8S,13S,16R)-1-(4-chloro-2-(4-(2-((dimethylamino)methyl)-1-methyl-1H-imidazol-5-yl)phenoxy)benzyl)-8-(4-chlorobenzyl)-2-ethyl-5-(methoxymethyl)-7,13,14,16-tetramethyl-1,4,7,11,14-pentaazacyclooctadecane-3,6,10,15,18-pentaone], the Max % inhibition is on record as 84.80% and the IC50 turned out to be 73.3 nM.

With `COC[C@@H]1NC(=O)[C@H](CCCN)N(Cc2ccc(Cl)cc2Oc2ccc(-c3cnc(CN(C)C)n3C)cc2)C(=O)C[C@@H](Cc2ccccc2)C(=O)N(C)[C@@H](C)CNC(=O)C[C@H](Cc2ccc(Cl)cc2)N(C)C1=O` [Compound 192, (2S,5S,8S,13S,16R)-2-(3-aminopropyl)-16-benzyl-1-(4-chloro-2-(4-(2-((dimethylamino)methyl)-1-methyl-1H-imidazol-5-yl)phenoxy)benzyl)-8-(4-chlorobenzyl)-5-(methoxymethyl)-7,13,14-trimethyl-1,4,7,11,14-pentaazacyclooctadecane-3,6,10,15,18-pentaone], the Max % inhibition was found to be 97.97% and the IC50 came out at 107 nM.

Turning to `CCOC(=O)CCCN(CCCC(=O)OCC)CCC[C@H]1C(=O)N[C@@H](COC)C(=O)N(C)[C@@H](Cc2ccc(Cl)cc2)CC(=O)N[C@H]2CCCC[C@@H]2N(C)C(=O)[C@H](Cc2ccccc2)CC(=O)N1Cc1ccc(Cl)cc1Oc1ccc(-c2cnc(CN(C)C)n2C)cc1` [Compound 267, diethyl 4,4′-((3-((4S,7S,10S,14R,16aS,20aS)-14-benzyl-11-(4-chloro-2-(4-(2-((dimethylamino)methyl)-1-methyl-1H-imidazol-5-yl)phenoxy)benzyl)-4-(4-chlorobenzyl)-7-(methoxymethyl)-5,16-dimethyl-2,6,9,12,15-pentaoxodocosahydrobenzo[l][1,4,7,11,14]pentaazacyclooctadecin-10-yl)propyl)azanediyl)dibutanoate], the Max % inhibition was 93.76% and the 50% inhibitory concentration (IC50) came out at 7.1 nM.

For the compound `C[C@H]1CNC(=O)C[C@H](Cc2ccc(Cl)cc2)N(C)C(=O)[C@H](CC(=O)O)NC(=O)[C@H](C)N(Cc2ccc(Cl)cc2Oc2ccc(-c3cnc(CN(C)C)n3C)cc2)C(=O)C[C@@H](Cc2ccccc2)C(=O)N1C` [Compound 213, 2-((2S,5S,8S,13S,16R)-16-benzyl-1-(4-chloro-2-(4-(2-((dimethylamino)methyl)-1-methyl-1H-imidazol-5-yl)phenoxy)benzyl)-8-(4-chlorobenzyl)-2,7,13,14-tetramethyl-3,6,10,15,18-pentaoxo-1,4,7,11,14-pentaazacyclooctadecan-5-yl)acetic acid], the Max % inhibition worked out at 91.51% and the IC50 came out at 3.5 nM.

Turning to `COC[C@@H]1NC(=O)[C@H](C)N(Cc2ccc(Cl)cc2Oc2ccc(-c3cnc(CN4CC[C@H](O)C4)n3C)cc2)C(=O)C[C@@H](Cc2ccccc2)C(=O)N(C)[C@@H](C)CNC(=O)C[C@H](Cc2ccc(Cl)cc2)N(C)C1=O` [Compound 220, (2S,5S,8S,13S,16R)-16-benzyl-1-(4-chloro-2-(4-(2-(((S)-3-hydroxypyrrolidin-1-yl)methyl)-1-methyl-1H-imidazol-5-yl)phenoxy)benzyl)-8-(4-chlorobenzyl)-5-(methoxymethyl)-2,7,13,14-tetramethyl-1,4,7,11,14-pentaazacyclooctadecane-3,6,10,15,18-pentaone], the Max % inhibition is recorded as 94.82% and the IC50 was 2.1 nM.

With `COC[C@@H]1NC(=O)[C@H](CCC(=O)OC(C)(C)C)N(Cc2ccc(Cl)cc2Oc2ccc(-c3cnc(CN(C)C)n3C)cc2)C(=O)C[C@@H](Cc2ccccc2)C(=O)N(C)[C@H]2CCCC[C@@H]2NC(=O)C[C@H](Cc2ccc(Cl)cc2)N(C)C1=O` [Compound 46, tert-butyl 3-((4S,7S,10S,14R,16aS,20aS)-14-benzyl-11-(4-chloro-2-(4-(2-((dimethylamino)methyl)-1-methyl-1H-imidazol-5-yl)phenoxy)benzyl)-4-(4-chlorobenzyl)-7-(methoxymethyl)-5,16-dimethyl-2,6,9,12,15-pentaoxodocosahydrobenzo[l][1,4,7,11,14]pentaazacyclooctadecin-10-yl]propanoate], the Max % inhibition is 96.56% and the IC50 amounted to 2.7 nM.

For `COC[C@@H]1NC(=O)[C@H](C)N(Cc2ccc(Cl)cc2Oc2ccc(-c3cnc(CN4CCCC4)n3C)c(F)c2F)C(=O)C[C@@H](Cc2ccccc2)C(=O)N(C)[C@@H](C)CNC(=O)C[C@H](Cc2ccc(Cl)cc2)N(C)C1=O` [Compound 299, (2S,5S,8S,13S,16R)-16-benzyl-1-(4-chloro-2-(2,3-difluoro-4-(1-methyl-2-(pyrrolidin-1-ylmethyl)-1H-imidazol-5-yl)phenoxy)benzyl)-8-(4-chlorobenzyl)-5-(methoxymethyl)-2,7,13,14-tetramethyl-1,4,7,11,14-pentaazacyclooctadecane-3,6,10,15,18-pentaone], the Max % inhibition is listed as 95.40% and the IC50 came out at 3.3 nM.

`COC[C@@H]1NC(=O)[C@H](CCN(C)C)N(Cc2ccc(Cl)cc2Oc2ccc(-c3cnc(CN(C)C)n3C)cc2)C(=O)C[C@@H](Cc2ccccc2)C(=O)N(C)[C@H]2CCCC[C@@H]2NC(=O)C[C@H](Cc2ccc(Cl)cc2)N(C)C1=O` [Compound 29, (4S,7S,10S,14R,16aS,20aS)-14-benzyl-11-(4-chloro-2-(4-(2-((dimethylamino)methyl)-1-methyl-1H-imidazol-5-yl)phenoxy)benzyl)-4-(4-chlorobenzyl)-10-(2-(dimethylamino)ethyl)-7-(methoxymethyl)-5,16-dimethylhexadecahydrobenzo[l][1,4,7,11,14]pentaazacyclooctadecine-2,6,9,12,15(3H)-pentaone]: the Max % inhibition is 94.90% and the IC50 was found to be 0.6 nM.

For `COC[C@@H]1NC(=O)[C@@H](CCN(C)C)N(Cc2ccc(Cl)cc2Oc2ccc(-c3cnc(CN(C)C)n3C)cc2)C(=O)C[C@@H](Cc2ccccn2)C(=O)N(C)[C@H]2CCCC[C@@H]2NC(=O)C[C@H](Cc2ccc(Cl)cc2)N(C)C1=O` [Compound 91, (4S,7S,10R,14R,16aS,20aS)-11-(4-chloro-2-(4-(2-((dimethylamino)methyl)-1-methyl-1H-imidazol-5-yl)phenoxy)benzyl)-4-(4-chlorobenzyl)-10-(2-(dimethylamino)ethyl)-7-(methoxymethyl)-5,16-dimethyl-14-(pyridin-2-ylmethyl)hexadecahydrobenzo[l][1,4,7,11,14]pentaazacyclooctadecine-2,6,9,12,15(3H)-pentaone], the Max % inhibition was found to be 86.95% and the IC50 came to 168 nM.

For `COC[C@@H]1NC(=O)[C@H](C)N(Cc2ccc(Cl)cc2Oc2ccc(-c3cnc4c(c3)CN(C(=O)[C@H]3CCNC3)CC4)cc2)C(=O)C[C@@H](Cc2ccccc2)C(=O)N(C)[C@@H](C)CNC(=O)C[C@H](Cc2ccc(Cl)cc2)N(C)C1=O` [Compound 176, (2S,5S,8S,13S,16R)-16-benzyl-1-(4-chloro-2-(4-(6-((S)-pyrrolidine-3-carbonyl)-5,6,7,8-tetrahydro-1,6-naphthyridin-3-yl)phenoxy)benzyl)-8-(4-chlorobenzyl)-5-(methoxymethyl)-2,7,13,14-tetramethyl-1,4,7,11,14-pentaazacyclooctadecane-3,6,10,15,18-pentaone], the Max % inhibition was determined as 70.99% and the IC50 turned out to be 4.3 nM.
